What was measured:
[1] = target: Activin receptor type-2B (Homo sapiens) (UniProt Q13705); conditions: Compound concentration 1000.0 nM
[2] = target: Insulin receptor-related protein (Homo sapiens) (UniProt P14616); conditions: Compound concentration 1000.0 nM
[3] = target: Interleukin-1 receptor-associated kinase 1 (Homo sapiens) (UniProt P51617); conditions: Compound concentration 1000.0 nM
[4] = target: Serine/threonine-protein kinase PLK1 (Homo sapiens) (UniProt P53350); conditions: Compound concentration 1000.0 nM
[5] = target: 5-hydroxytryptamine receptor 1D (Homo sapiens) (UniProt P28221); conditions: Compound concentration 10.0 uM
[6] = target: STE20-like serine/threonine-protein kinase (Homo sapiens) (UniProt Q9H2G2); conditions: Compound concentration 1000.0 nM
STE20-like serine/threonine-protein kinase (Homo sapiens), sequence (Q9H2G2 whole entry, looked up): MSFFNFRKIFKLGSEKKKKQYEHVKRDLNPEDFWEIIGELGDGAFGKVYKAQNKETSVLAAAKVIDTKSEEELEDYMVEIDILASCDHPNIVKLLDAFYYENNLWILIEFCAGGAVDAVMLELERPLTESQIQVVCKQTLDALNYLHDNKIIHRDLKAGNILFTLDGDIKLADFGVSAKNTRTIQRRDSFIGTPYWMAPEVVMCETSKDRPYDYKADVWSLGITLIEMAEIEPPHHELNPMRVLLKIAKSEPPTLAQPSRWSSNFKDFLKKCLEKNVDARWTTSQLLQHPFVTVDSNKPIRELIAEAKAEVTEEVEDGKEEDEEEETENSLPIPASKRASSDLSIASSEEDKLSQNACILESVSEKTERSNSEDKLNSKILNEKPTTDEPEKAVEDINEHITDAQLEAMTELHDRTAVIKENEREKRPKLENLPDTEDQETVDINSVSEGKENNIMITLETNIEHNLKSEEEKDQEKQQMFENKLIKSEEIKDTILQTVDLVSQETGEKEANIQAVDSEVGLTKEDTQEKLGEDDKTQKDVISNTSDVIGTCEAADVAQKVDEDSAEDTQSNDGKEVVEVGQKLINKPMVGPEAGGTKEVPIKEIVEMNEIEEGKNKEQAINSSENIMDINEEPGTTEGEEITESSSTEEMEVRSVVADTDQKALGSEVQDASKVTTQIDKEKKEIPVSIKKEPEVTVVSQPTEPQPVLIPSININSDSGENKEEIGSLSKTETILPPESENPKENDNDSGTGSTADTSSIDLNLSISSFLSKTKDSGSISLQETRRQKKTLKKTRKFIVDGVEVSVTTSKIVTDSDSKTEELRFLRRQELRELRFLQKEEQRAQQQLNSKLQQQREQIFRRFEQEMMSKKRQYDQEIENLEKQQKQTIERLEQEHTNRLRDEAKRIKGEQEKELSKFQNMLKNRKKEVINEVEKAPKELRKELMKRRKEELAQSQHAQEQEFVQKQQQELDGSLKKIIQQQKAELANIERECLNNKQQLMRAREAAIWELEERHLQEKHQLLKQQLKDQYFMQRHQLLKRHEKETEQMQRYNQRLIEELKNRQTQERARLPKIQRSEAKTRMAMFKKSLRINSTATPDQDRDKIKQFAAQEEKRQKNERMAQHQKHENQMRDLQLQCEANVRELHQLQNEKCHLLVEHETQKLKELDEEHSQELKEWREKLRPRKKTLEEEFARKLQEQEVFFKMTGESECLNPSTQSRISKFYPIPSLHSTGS

[7] = target: Histamine H3 receptor (Homo sapiens) (UniProt Q9Y5N1); conditions: Compound concentration 10.0 uM
[8] = target: Mitogen-activated protein kinase kinase kinase 12 (Homo sapiens) (UniProt Q12852); conditions: Compound concentration 1000.0 nM
[9] = target: Cyclin-dependent kinase 11A (Homo sapiens) (UniProt Q9UQ88); conditions: Compound concentration 1000.0 nM
[10] = target: Tyrosine-protein kinase JAK2 (Homo sapiens) (UniProt O60674); conditions: Compound concentration 1000.0 nM
[11] = target: Tyrosine-protein kinase Lck (Homo sapiens) (UniProt P06239); conditions: Compound concentration 1000.0 nM
[12] = target: Hepatocyte growth factor receptor (Homo sapiens) (UniProt P08581); conditions: Compound concentration 1000.0 nM
[13] = target: Serine/threonine-protein kinase MRCK beta (Homo sapiens) (UniProt Q9Y5S2); conditions: Compound concentration 1000.0 nM
[14] = target: Serine/threonine-protein kinase mTOR (Homo sapiens) (UniProt P42345); conditions: Compound concentration 1000.0 nM
[15] = target: TGF-beta receptor type-1 (Homo sapiens) (UniProt P36897); conditions: Compound concentration 1000.0 nM
[16] = target: Dual specificity tyrosine-phosphorylation-regulated kinase 1A (Homo sapiens) (UniProt Q13627); conditions: Compound concentration 1000.0 nM
[17] = test system: Mast/stem cell growth factor receptor Kit (Homo sapiens), P10721 [V559D]; conditions: Compound concentration 1000.0 nM
[18] = target: Mitogen-activated protein kinase 9 (Homo sapiens) (UniProt P45984); conditions: Compound concentration 1000.0 nM
[19] = target: Mast/stem cell growth factor receptor Kit (Homo sapiens) (UniProt P10721); conditions: Compound concentration 1000.0 nM
[20] = target: Receptor tyrosine-protein kinase erbB-3 (Homo sapiens) (UniProt P21860); conditions: Compound concentration 1000.0 nM
[21] = target: Histamine H4 receptor (Homo sapiens) (UniProt Q9H3N8); conditions: Compound concentration 10.0 uM
[22] = target: Cyclin-dependent kinase 4 (Homo sapiens) (UniProt P11802); conditions: Compound concentration 1000.0 nM
Cyclin-dependent kinase 4 (Homo sapiens), sequence (P11802 whole entry, canonical isoform): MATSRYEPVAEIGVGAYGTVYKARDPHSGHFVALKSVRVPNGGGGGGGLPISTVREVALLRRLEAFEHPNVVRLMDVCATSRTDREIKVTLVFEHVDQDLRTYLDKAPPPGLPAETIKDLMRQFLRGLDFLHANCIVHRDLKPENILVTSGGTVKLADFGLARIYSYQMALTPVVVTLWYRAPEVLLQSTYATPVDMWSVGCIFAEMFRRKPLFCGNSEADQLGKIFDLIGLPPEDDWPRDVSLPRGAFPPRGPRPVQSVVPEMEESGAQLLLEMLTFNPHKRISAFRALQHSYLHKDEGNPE

[23] = test system: Phosphatidylinositol 4,5-bisphosphate 3-kinase catalytic subunit alpha isoform (Homo sapiens), P42336 [C420R]; conditions: Compound concentration 1000.0 nM
[24] = target: SRSF protein kinase 2 (Homo sapiens) (UniProt P78362); conditions: Compound concentration 1000.0 nM
[25] = target: Serine/threonine-protein kinase LATS2 (Homo sapiens) (UniProt Q9NRM7); conditions: Compound concentration 1000.0 nM
[26] = target: Serine/threonine-protein kinase B-raf (Homo sapiens) (UniProt P15056); conditions: Compound concentration 1000.0 nM
[27] = target: Dual specificity mitogen-activated protein kinase kinase 7 (Homo sapiens) (UniProt O14733); conditions: Compound concentration 1000.0 nM
[28] = target: D(2) dopamine receptor (Homo sapiens) (UniProt P14416); conditions: Compound concentration 10.0 uM
[29] = target: Phosphatidylinositol 4,5-bisphosphate 3-kinase catalytic subunit gamma isoform (Homo sapiens) (UniProt P48736); conditions: Compound concentration 1000.0 nM
Phosphatidylinositol 4,5-bisphosphate 3-kinase catalytic subunit gamma isoform (Homo sapiens), sequence (P48736 whole entry, looked up, canonical isoform): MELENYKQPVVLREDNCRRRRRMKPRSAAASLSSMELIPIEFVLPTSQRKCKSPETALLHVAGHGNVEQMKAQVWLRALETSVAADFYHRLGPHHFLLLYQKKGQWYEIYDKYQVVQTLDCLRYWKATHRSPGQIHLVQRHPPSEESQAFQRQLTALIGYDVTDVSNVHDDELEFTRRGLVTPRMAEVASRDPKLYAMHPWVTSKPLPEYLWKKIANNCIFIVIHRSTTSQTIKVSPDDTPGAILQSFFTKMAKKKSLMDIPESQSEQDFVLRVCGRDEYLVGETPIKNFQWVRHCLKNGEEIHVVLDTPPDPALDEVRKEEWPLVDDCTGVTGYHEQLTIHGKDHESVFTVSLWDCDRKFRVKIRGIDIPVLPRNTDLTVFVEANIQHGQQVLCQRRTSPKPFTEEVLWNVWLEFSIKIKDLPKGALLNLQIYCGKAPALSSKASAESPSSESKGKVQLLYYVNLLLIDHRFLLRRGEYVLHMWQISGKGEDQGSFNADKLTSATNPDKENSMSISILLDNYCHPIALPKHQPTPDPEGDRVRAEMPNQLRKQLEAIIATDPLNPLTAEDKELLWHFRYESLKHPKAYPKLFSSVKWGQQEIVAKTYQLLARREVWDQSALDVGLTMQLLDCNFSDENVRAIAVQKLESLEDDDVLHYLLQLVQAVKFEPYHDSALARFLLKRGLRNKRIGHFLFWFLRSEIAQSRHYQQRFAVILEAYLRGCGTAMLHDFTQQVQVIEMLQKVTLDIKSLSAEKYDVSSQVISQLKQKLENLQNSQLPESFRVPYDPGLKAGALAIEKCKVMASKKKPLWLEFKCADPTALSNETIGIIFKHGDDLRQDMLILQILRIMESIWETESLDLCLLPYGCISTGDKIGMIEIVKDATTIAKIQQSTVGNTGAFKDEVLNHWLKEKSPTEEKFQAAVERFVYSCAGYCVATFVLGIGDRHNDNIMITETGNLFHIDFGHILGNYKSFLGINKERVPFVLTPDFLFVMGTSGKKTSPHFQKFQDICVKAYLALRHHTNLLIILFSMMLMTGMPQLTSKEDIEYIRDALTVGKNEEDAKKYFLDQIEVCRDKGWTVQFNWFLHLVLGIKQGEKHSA

[30] = test system: Tyrosine-protein kinase ABL1 (Homo sapiens), P00519 [H396P]; conditions: Compound concentration 1000.0 nM
[31] = target: Cyclin-dependent kinase 13 (Homo sapiens) (UniProt Q14004); conditions: Compound concentration 1000.0 nM
[32] = target: Macrophage colony-stimulating factor 1 receptor (Homo sapiens) (UniProt P07333); conditions: Compound concentration 1000.0 nM
[33] = target: Serine/threonine-protein kinase Nek9 (Homo sapiens) (UniProt Q8TD19); conditions: Compound concentration 1000.0 nM
Serine/threonine-protein kinase Nek9 (Homo sapiens), sequence (Q8TD19 whole entry): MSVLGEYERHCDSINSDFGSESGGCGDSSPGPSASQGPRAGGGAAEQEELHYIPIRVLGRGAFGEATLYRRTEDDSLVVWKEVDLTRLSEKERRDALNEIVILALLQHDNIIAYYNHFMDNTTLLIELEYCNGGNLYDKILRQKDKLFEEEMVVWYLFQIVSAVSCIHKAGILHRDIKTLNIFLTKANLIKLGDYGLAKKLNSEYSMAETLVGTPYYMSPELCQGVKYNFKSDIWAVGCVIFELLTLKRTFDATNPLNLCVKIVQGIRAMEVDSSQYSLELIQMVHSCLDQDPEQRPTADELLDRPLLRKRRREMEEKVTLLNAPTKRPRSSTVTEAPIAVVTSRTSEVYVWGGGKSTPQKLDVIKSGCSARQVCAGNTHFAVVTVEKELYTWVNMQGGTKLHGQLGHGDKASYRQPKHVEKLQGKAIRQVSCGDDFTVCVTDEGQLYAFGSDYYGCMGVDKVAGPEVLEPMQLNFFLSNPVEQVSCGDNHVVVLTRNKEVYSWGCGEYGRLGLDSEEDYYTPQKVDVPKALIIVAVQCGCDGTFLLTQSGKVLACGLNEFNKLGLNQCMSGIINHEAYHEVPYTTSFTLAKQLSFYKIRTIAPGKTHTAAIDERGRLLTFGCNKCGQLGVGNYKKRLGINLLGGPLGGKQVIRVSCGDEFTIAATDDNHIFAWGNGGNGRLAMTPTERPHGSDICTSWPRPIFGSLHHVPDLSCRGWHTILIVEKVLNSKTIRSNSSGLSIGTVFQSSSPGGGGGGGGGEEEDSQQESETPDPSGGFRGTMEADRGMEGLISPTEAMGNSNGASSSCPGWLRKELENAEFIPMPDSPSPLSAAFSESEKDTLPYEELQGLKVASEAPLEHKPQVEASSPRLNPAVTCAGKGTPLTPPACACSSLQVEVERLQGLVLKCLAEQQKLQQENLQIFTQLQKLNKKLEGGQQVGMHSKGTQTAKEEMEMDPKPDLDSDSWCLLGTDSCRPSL

[34] = target: Bone morphogenetic protein receptor type-1B (Homo sapiens) (UniProt O00238); conditions: Compound concentration 1000.0 nM
[35] = target: 5-hydroxytryptamine receptor 7 (Homo sapiens) (UniProt P34969); conditions: Compound concentration 10.0 uM
[36] = target: Cyclin-dependent kinase 14 (Homo sapiens) (UniProt O94921); conditions: Compound concentration 1000.0 nM
[37] = target: Dual specificity mitogen-activated protein kinase kinase 4 (Homo sapiens) (UniProt P45985); conditions: Compound concentration 1000.0 nM
Dual specificity mitogen-activated protein kinase kinase 4 (Homo sapiens), sequence (P45985 whole entry): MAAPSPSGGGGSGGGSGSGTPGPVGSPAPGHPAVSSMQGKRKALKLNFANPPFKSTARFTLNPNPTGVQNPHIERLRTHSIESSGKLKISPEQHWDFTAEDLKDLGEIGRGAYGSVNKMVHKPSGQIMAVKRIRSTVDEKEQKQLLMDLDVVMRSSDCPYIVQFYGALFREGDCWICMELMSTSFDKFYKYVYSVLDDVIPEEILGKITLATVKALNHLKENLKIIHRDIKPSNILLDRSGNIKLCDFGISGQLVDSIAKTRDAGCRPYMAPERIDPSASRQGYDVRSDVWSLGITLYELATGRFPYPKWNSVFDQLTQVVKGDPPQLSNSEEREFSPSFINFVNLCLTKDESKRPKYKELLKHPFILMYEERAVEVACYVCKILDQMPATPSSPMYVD

[38] = target: Tyrosine-protein kinase CSK (Homo sapiens) (UniProt P41240); conditions: Compound concentration 1000.0 nM
[39] = target: Phosphatidylinositol 4,5-bisphosphate 3-kinase catalytic subunit beta isoform (Homo sapiens) (UniProt P42338); conditions: Compound concentration 1000.0 nM
Phosphatidylinositol 4,5-bisphosphate 3-kinase catalytic subunit beta isoform (Homo sapiens), sequence (P42338 whole entry, looked up, canonical isoform): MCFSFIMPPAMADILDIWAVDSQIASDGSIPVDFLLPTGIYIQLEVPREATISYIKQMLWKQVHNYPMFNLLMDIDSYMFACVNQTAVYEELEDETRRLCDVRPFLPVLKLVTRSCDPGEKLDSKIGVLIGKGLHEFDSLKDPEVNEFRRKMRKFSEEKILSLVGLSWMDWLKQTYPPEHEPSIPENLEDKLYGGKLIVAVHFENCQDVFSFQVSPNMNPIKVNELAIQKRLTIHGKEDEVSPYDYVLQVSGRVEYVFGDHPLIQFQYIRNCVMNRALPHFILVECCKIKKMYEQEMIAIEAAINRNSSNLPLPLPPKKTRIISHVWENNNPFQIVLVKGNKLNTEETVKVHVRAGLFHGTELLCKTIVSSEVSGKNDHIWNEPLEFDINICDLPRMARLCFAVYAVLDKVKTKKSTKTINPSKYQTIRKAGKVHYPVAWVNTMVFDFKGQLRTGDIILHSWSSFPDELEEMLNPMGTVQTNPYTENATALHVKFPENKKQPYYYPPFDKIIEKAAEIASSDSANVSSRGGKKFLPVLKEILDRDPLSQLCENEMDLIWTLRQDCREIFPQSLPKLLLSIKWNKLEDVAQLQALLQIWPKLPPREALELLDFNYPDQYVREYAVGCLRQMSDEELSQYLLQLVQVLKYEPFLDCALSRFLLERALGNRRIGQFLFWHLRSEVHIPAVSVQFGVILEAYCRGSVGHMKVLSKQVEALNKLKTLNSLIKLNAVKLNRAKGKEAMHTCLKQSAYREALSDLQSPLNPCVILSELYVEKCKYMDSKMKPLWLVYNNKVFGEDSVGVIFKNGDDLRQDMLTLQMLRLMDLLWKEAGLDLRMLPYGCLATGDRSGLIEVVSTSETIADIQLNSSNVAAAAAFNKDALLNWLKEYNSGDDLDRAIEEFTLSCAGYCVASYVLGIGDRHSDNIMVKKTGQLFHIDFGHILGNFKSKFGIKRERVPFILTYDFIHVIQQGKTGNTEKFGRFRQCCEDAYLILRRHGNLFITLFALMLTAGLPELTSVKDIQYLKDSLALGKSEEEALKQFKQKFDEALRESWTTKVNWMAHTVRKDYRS

[40] = target: Protein kinase C iota type (Homo sapiens) (UniProt P41743); conditions: Compound concentration 1000.0 nM
[41] = target: Serine/threonine-protein kinase 32C (Homo sapiens) (UniProt Q86UX6); conditions: Compound concentration 1000.0 nM
[42] = target: Cyclin-dependent kinase 2 (Homo sapiens) (UniProt P24941); conditions: Compound concentration 1000.0 nM
[43] = target: Non-receptor tyrosine-protein kinase TYK2 (Homo sapiens) (UniProt P29597); conditions: Compound concentration 1000.0 nM

CCC(=N\O)/C(C)=C/c1ccc(F)c(C)c1 [A-226]
inactive: residual activity [1] 100% | residual activity [2] 100% | residual activity [3] 100% | residual activity [4] 82% | inhibition [5] 4.54% | residual activity [6] 93% | inhibition [7] -0.3% | residual activity [8] 100% | residual activity [9] 69% | residual activity [10] 100% | residual activity [11] 87% | residual activity [12] 100% | residual activity [13] 69% | residual activity [14] 100% | residual activity [15] 88% | residual activity [16] 100% | residual activity [17] 100% | residual activity [18] 100% | residual activity [19] 91% | residual activity [20] 76% | inhibition [21] 10.8% | residual activity [22] 100% | residual activity [23] 100% | residual activity [24] 97% | residual activity [25] 75% | residual activity [26] 79% | residual activity [27] 100% | inhibition [28] -6.57% | residual activity [29] 100% | residual activity [30] 100% | residual activity [31] 100% | residual activity [32] 90% | residual activity [33] 100% | residual activity [34] 80% | inhibition [35] -0.42% | residual activity [36] 92% | residual activity [37] 100% | residual activity [38] 96% | residual activity [39] 100% | residual activity [40] 99% | residual activity [41] 100% | residual activity [42] 96% | residual activity [43] 100%

CCC(=N\O)/C(C)=C/c1ccc(F)cc1 [A-079]
inactive: residual activity [1] 91% | residual activity [2] 83% | residual activity [3] 79% | residual activity [4] 93% | inhibition [5] 13.9% | residual activity [6] 91% | inhibition [7] 4.32% | residual activity [8] 76% | residual activity [9] 94% | residual activity [10] 71% | residual activity [11] 82% | residual activity [12] 88% | residual activity [13] 100% | residual activity [14] 100% | residual activity [15] 85% | residual activity [16] 91% | residual activity [17] 100% | residual activity [18] 92% | residual activity [19] 100% | residual activity [20] 100% | inhibition [21] 9.43% | residual activity [22] 74% | residual activity [23] 79% | residual activity [24] 75% | residual activity [25] 100% | residual activity [26] 87% | residual activity [27] 79% | inhibition [28] -8.66% | residual activity [29] 100% | residual activity [30] 72% | residual activity [31] 95% | residual activity [32] 91% | residual activity [33] 79% | residual activity [34] 87% | inhibition [35] 8.18% | residual activity [36] 91% | residual activity [37] 75% | residual activity [38] 100% | residual activity [39] 99% | residual activity [40] 74% | residual activity [41] 65% | residual activity [42] 82% | residual activity [43] 72%

Source: ChEMBL document CHEMBL4507256 (2021)
